Measured values taken from patent US12503444B2, “Compound containing benzene ring and application thereof” (WUHAN LL SCIENCE AND TECHNOLOGY DEVELOPMENT CO., LTD., priority 2019, dated 2025).
pIC50: −log10 of the molar value. Where two headings read alike, the source gives them in different places.

Key:
[1] = biological target: T1, hP2X4 (human purinergic P2X receptor subtype 4) (Homo sapiens, UniProt Q99571); assay: FLIPR assay of intracellular calcium increase induced by activation of hP2X4 expressed in HEK293 cells (agonist BZ-ATP 2.5 μM); assay type: cell-based; conditions: HEK293 cells stably expressing hP2X4, FLIPR, read-out: P2X4 IC50
T1 sequence (Q99571 1-404 isoform Q99571-2): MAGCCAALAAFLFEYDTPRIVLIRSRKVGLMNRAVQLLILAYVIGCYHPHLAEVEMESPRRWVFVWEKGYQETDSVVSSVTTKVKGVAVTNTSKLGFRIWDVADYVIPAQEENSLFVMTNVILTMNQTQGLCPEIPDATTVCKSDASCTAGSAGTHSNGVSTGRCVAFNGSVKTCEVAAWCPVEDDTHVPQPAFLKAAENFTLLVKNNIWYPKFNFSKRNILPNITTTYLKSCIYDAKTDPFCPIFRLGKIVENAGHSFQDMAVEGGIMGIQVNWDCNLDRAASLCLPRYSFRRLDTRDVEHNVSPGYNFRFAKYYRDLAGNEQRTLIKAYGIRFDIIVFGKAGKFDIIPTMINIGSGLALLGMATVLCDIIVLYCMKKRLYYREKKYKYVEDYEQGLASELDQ
Outline: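 HEK293 cells stably expressing hP2X4, loaded with Calcium 6 dye for 1.5 h at 37° C, then preincubated with compound 30 min at room temperature.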

[2] = system: Male Dunkin Hartley guinea pigs; assay: Citric acid only cough model in guinea pigs; assay type: in vivo; conditions: guinea pig; for Cough inhibition rate Vs vehicle (%) / Cough latency / Mean number of coughs / Cough inhibition rate Vs baseline (%): 17.5% citric acid; for Cough inhibition rate Vs baseline (%): before vs after administration
Procedure: Male Dunkin Hartley guinea pigs (300-350 g) were placed in an animal atomization box, and then the door of the atomization box was closed while the ultrasonic atomizer (Guangdong Yuehua) was turned on. 17.5% citric acid gas was introduced into the atomization box at a maximum atomization rate (about 2 mL/min) for 20 s, and coughs of the animals within 10 min were continuously observed from the time of the start of atomization. During the 10-min observation, coughs of the animals needed to be counted manually, and the number of coughs were judged according to cough postures of the guinea pigs, such as abdominal twitching, mouth opening, and head inclining downward abruptly. The number of coughs during the first 5 min and that during 10 min were recorded, and the cough latency of the guinea pigs, namely the time from the initiation of citric acid induction to the appearance of the 1st cough, was also recorded.
Cough inhibition rate Vs vehicle represents the percentage of reduction
[formula] in the number of coughs in the administration group compared to the vehicle group upon citric acid challenge; Cough inhibition rate Vs baseline represents the percentage of reduction
[formula] in the number of coughs in the administration group before and after administration.

[3] = In vitro metabolic stability, liver microsome incubation (guinea pig); assay type: in vitro ADME; conditions: 1 mg/mL liver microsome protein, 37° C.; for half-life: guinea pig, liver microsomes, read-out: T1/2 in guinea pig liver microsome min
Procedure: (§1) The in vitro metabolic stability of the compounds disclosed herein was determined through incubation of liver microsomes of various species. A proper amount of test compound was added into a liver microsome reaction system (1 mg/mL liver microsome protein, 25 U/mL glucose-6 phosphate dehydrogenase, 1 mM NADP, 6 mM D-glucose 6-phosphate and 5 mM MgCl2), and then the mixture was incubated in a water bath kettle at 37° C. to start the reaction. At each time point, 100 μL of the reaction system was added into a centrifuge tube containing 400 μL of internal standard working solution (containing a 200 ng/mL solution of dexamethasone, diclofenac, tolbutamide and labetalol in acetonitrile) precooled at 0° C. so as to stop the reaction, and the mixture was then centrifuged at 10,000 g for 10 min at 4° C. The supernatant was collected for LC-MS assay so as to obtain the values of in vitro metabolic half-life of the test compounds in liver microsomes of various species.

[4] = In vitro metabolic stability, liver microsome incubation (rat); assay type: in vitro ADME; conditions: 1 mg/mL liver microsome protein, 37° C.; for half-life: rat, liver microsomes, read-out: T1/2 in rat liver microsome min
Procedure: as §1

[5] = In vitro metabolic stability, liver microsome incubation (human); assay type: in vitro ADME; conditions: 1 mg/mL liver microsome protein, 37° C.; for half-life: human, liver microsomes, read-out: T1/2 in human liver microsome min
Procedure: as §1

[6] = In vitro cytotoxicity assay in HepG2 cells, CCK-8 method; conditions: human
Procedure: (§2) In vitro cytotoxicity assay for the compounds disclosed herein was performed in HepG2 cells using the CCK-8 method. HepG2 cells (Beina Bio) in the logarithmic growth phase were collected, the concentration of cell suspension was adjusted, and then the cells were plated on a 96-well cell culture plate at 50,000 cells/well. The cells were then incubated overnight in a cell incubator (5%/humidity, 37° C.), and after 80-90% cell confluence was achieved, test compounds or vehicle (DMSO) at various concentration gradients were added after medium change. The resulting mixture was incubated in the cell incubator (5% humidity, 37° C.) for 48 h. After the treatment, the medium in the plate was discarded. The plate was washed twice with PBS, added with CCK-8 working solution (Beyotime) at 100 μL per well, and then incubated at 37° C. for 1.5 h away from the light. Absorbance at OD450 nm was measured for each well on a microplate reader, and CC50 value of each compound was analyzed and calculated.

[7] = system: HepG2 cells
Procedure: as §2

[8] = system: HepG2 cells; assay: In vitro cytotoxicity assay in HepG2 cells, CCK-8 method; conditions: read-out: HepG2 CC50, 48 h, CCK-8
Procedure: as §2

[9] = 20 mg/kg group, before administration (baseline)
[10] = 60 mg/kg group, before administration (baseline)

half-life [3] [h] | half-life [4] [h] | half-life [5] [h] | SMILES | pIC50 ([1]; numeric values) | CC50 at 48 h [6] [µM] | CC50 [7] [µM] | T1/2 in human liver microsome min [5] [h] | pIC50 ([1]; class symbols) | further results
2.58 | 6.03 | 11.5 | NS(=O)(=O)c1cc(NC(=O)Cc2ccccc2Cl)cc2nn(C(F)F)cc12 [Compound 1, 2-(2-chlorophenyl)-N-(2-(difluoromethyl)-4-sulfamoyl-2H-indazol-6-yl)acetamide] | 7.54 | > 200 | – | – | – | Effect on number of coughs and cough latency (in words) ([2]; 20 mg/kg and 60 mg/kg, compared with vehicle group or before administration): reduce the number of coughs and prolong the cough latency in a dose-dependent manner; Effect on number of coughs and cough latency (in words) ([2]; 60 mg/kg, no significant difference from dextromethorphan at the same dosage): significant improvement effect; Cough inhibition rate Vs vehicle (%) ([2]; 20 mg/kg): 20.59%; Cough latency [2, 9]: 94.29 s; Mean number of coughs [2, 9]: 18.57; Cough latency ([2]; 20 mg/kg, after administration): 214.29 s; Mean number of coughs ([2]; 20 mg/kg, after administration): 15.29; Cough inhibition rate Vs baseline (%) ([2]; 20 mg/kg): 17.69%; Cough inhibition rate Vs vehicle (%) ([2]; 60 mg/kg): 46.75%; Cough latency [2, 10]: 84.88 s; Mean number of coughs [2, 10]: 18.50; Cough latency ([2]; 60 mg/kg, after administration): 221.75 s; Mean number of coughs ([2]; 60 mg/kg, after administration): 10.25; Cough inhibition rate Vs baseline (%) ([2]; 60 mg/kg): 44.59%
– | – | – | CCCn1ncc2c(S(N)(=O)=O)cc(NC(=O)Cc3ccccc3Cl)cc21 [Compound 5-B, 2-(2-chlorophenyl)-N-(1-propyl-4-sulfonylamino-1H-indazol-6-yl)acetamide] | 8.66 | – | > 200 | 1.094 | – | –
– | – | – | CC(C)Cn1ncc2c(S(N)(=O)=O)cc(NC(=O)Cc3ccccc3Cl)cc21 [Compound 7-B, 2-(2-chlorophenyl)-N-(1-isobutyl-4-sulfamoyl-2H-indazol-6-yl)acetamide] | 8.63 | – | 150 | 0.5413 | – | –
– | – | – | CC(C)CCn1ncc2c(S(N)(=O)=O)cc(NC(=O)Cc3ccccc3Cl)cc21 [Compound 8-B, 2-(2-chlorophenyl)-N-(1-isopentyl-4-sulfamoyl-2H-indazol-6-yl)acetamide] | 9.42 | – | > 200 | 0.4488 | – | –
0.809 | 1.84 | 3.23 | N#Cc1ccc(Cn2cc3c(S(N)(=O)=O)cc(NC(=O)Cc4ccccc4Cl)cc3n2)cc1 [Compound 91, 2-(2-chlorophenyl)-N-(2-(4-cyanobenzyl)-4-sulfamoyl-2H-indazol-6-yl)acetamide] | – | > 200 | – | – | ≥ 8.00 | –
– | – | – | COc1ccc(CN(Cc2ccc(OC)cc2)S(=O)(=O)c2cc(NC(=O)Cc3ccccc3Cl)cc3c2cnn3Cc2ccc(C#N)cc2)cc1 [Compound 91A, N-(4-(N,N-bis(4-methoxybenzyl)sulfamoyl)-1-(4-cyanobenzyl)-1H-indazol-6-yl)-2-(2-chlorophenyl)acetamide] | – | – | – | 1.6827 | ≥ 8.00 | T1/2 in guinea pig liver microsome min [3]: 1.424 h; T1/2 in rat liver microsome min [4]: 2.0857 h; CC50 [8]: > 200 µM
